In publication PMC5382548 (Scientific Reports, 2015):
“Also recorded” adds a separate entry of the source. Read-outs that look alike come from different tables or passages of the source.

Key:
[1] = tested on: Panc1 (chemo-resistant pancreatic); assay: SRB short-term cytotoxicity assay, Panc1; assay type: cell-based; conditions: Homo sapiens, PANC-1, 96 h
Protocol: (§1) Short-term anti-proliferative assays were carried out by two different assays using a panel of human cancer and non-malignant human cell lines. […] The transformed human embryonic kidney cell line HEK293T (wt KRAS) was sensitive to all tested drugs, including TMPyP4, a cationic porphyrin established as a G4 ligand, as well as the anticancer drug 5-fluorouracil (5-FU).
Human cell lines, breast carcinoma (MCF7), lung carcinoma (A549), pancreatic cancer (MIA PaCa2, Panc-1), immortalised telomerase-negative human lung fibroblast (ALT) and normal human lung fibroblast (WI-38), were all purchased from American Type Cell Culture (ATCC). Cell lines were maintained in appropriate medium supplemented with 10% fetal bovine serum (Invitrogen, UK), 2 mM L-glutamine (Invitrogen, Netherlands), and other components as specified by the suppliers. All cell lines were maintained at 37°C, 5% CO2, and routinely passaged. Short-term growth inhibition was measured using the SRB assay as described previously[43] (additional details described in Supplementary Information). […]
Sulforhodamine B (SRB) short-term cytotoxicity assay
Cells were seeded at appropriate densities into the wells of 96 well plates in their corresponding medium and incubated overnight to allow the cells to attach. Subsequently cells were exposed to various concentrations of freshly made solutions of drugs and incubated for 96 h. The cells were subsequently fixed with ice-cold trichloacetic acid (TCA) (10%, w/v) for 30 min and stained with 0.4% SRB dissolved in 1% acetic acid for 15 min.
All incubations were carried out at room temperature except for TCA fixation, which was at 4 °C. The IC50 value, the concentration required to inhibit cell growth by 50%, was determined from the mean absorbance at 540 nm for each drug concentration expressed as a percentage of the control untreated well absorbance. (Performed at School of Pharmacy, University College of London). […]
(#sc-30/sc-126; Santa Cruz Biotechnology Inc., Santa Cruz, CA, USA). […]

[2] = tested on: HEK293T (embryonic kidney); assay: MTS short-term cytotoxicity assay, HEK293T; assay type: cell-based; conditions: Homo sapiens, HEK-293T, 72 h, read-out: IC50 HEK293T
Protocol: as §1
HCT116 human colon carcinoma cells, SW620 human colorectal adenocarcinoma and HEK293 T human embryonic kidney cells were grown in Dulbecco's modified Eagle's medium (DMEM) supplemented with 10% fetal bovine serum, and 1% antibiotic/antimycotic (Invitrogen, Grand Island, NY, USA) and maintained at 37°C in a humidified atmosphere of 5% CO2. Cells were seeded in 96 well plates at 5.000 cells/well. Twenty-four hours after cell plating, media was removed and replaced with fresh media containing test compounds and 5-FU (Sigma), a common cytotoxic agent used in colon cancer treatmen, or vehicle control (DMSO). Following 72 h of compound exposure, cell viability was evaluated using the CellTiter 96 AQueous Non-Radioactive Cell Proliferation Assay (Promega, Madison, WI, USA), using 3-(4,5-dimethylthiazol-2-yl)-5-(3-carboxymethoxyphenyl)-2-(4-sulfophenyl)-2H-tetrazolium, inner salt (MTS) as previously described. Cell viability data were expressed as mean ± SEM or mean ± SD from at least three independent experiments. IC50 and IC65 values were determined using GaphPad Prism v.5.00 (GraphPad Software). (Performed at Cell Function and Therapeutic Targeting Group, iMed.ULisboa)

[3] = tested on: F21T (DNA, G4) GGGTTAGGGTAGGGTTAGGG; assay: FRET melting; conditions: 60 mM K+; K-cacodylate pH 7.4; 0.2 μM DNA, 1 μM compound; SD ≤ 0.2
[4] = tested on: KRAS mRNA in HCT116 cells; assay: KRAS mRNA steady-state levels, Taqman real-time RT-PCR, HCT116; assay type: cell-based, human; conditions: 72 h; for Reduction of KRAS mRNA steady-state levels, HCT116: equitoxic (IC50) concentrations (TMPyP4 12 μM)
Protocol: The effects of compounds on KRAS transcription in colon cancer cells (HCT116 and SW620) were evaluated by quantifying KRAS mRNA steady-state levels using Taqman real-time RT-PCR.
(a) KRAS mRNA steady-state expression was evaluated by Taqman Real-time RT-PCR using specific Taqman Assays for KRAS and β-Actin for normalization. KRAS mRNA steady-state expression levels were calculated by the ΔΔCt method, using DMSO (vehicle control) for calibration; and (b) KRAS protein steady-state expression evaluated by immunoblot relative to control (DMSO vehicle) Results are expressed as mean ± SEM of at least three independent experiments; *p < 0.05 and §p < 0.01 from DMSO (vehicle control).
HCT116, SW620 and HEK293 T cells were seeded in 35 mm plates at 150000 cells per well. […] After 72 h of compound exposure, cells were collected and processed for total RNA extraction using TRIZOL reagent (Invitrogen) according to the manufacturer's instructions. Samples were homogenized in TRIZOL reagent using a motor-driven Bio-vortexer (No1083; Biospec Products, Bartlesfield, OK) and disposable RNAse/DNAse free sterile pestles (Thermo Fisher Scientific, Inc., Chicago, IL). […] Evaluation of steady-state expression of KRAS mRNA was performed by Taqman Real-time PCR assay, detailed in Supplementary Information.
Total RNA extraction and Taqman real-time RT-PCR
Taqman Real-time PCR reactions were performed using 1.5 µg of total RNA, using High Capacity RNA to cDNA kit, according to the manufacturer`s instruction. Next, Real-time PCR reactions were performed using Taqman Universal Master Mix II, no UNG, and primers specific to human KRAS (assay ID Hs00000174_rf, # 4465807) primers and to Human β- Actin (ACTB # 401846) for normalization to endogenous control (both from Applied Biosystems Inc). Triplicate reactions were run per sample. Data was collected with 7300 System Sequence Detection Software, version 1.2.3 (Applied Biosystems Inc). The comparative threshold cycle method was used to calculate the amplification factor, where the threshold cycle (Ct) is defined as the cycle number at which the fluorescence passes the fixed threshold intensity level. KRAS expression levels in different samples were calculated on the basis of ΔΔCt method. For each cell line, vehicle control (DMSO) was used as the calibrator. The n-fold change in KRAS expression was obtained using the formula: 2-ΔΔCt. […]
SW620 and HEK293 T cells were seeded in 24-well plates 50,000cells/well. Twenty-four hours later, cells were exposed to compounds for 72 h. After treatment, cell culture supernatants were collected and adherent cells were detached with TrypLE (Invitrogen).
Next, detached cells were pooled with cell culture supernatants and centrifuged for 5 min (650 g). […]

SMILES | IC50 [1] [nM] | IC50 ([2]; MTS assay) [nM] | ΔTm [3] [°C] | KRAS mRNA levels reduced to (% remaining) ([4]; IC50 concentration, cell line not given) | Reduction of KRAS mRNA steady-state levels, HCT116 [4] | IC50 [2] [nM]
Cn1cc2c3ccccc3nc-2c2cc(Br)ccc21 [2a, 2-bromo-5-methyl-indolo[3,2-c]quinoline] | 2750 | 300 | 5.6 |  |  | 
CCN(CC)CCCNc1ccc2c(c1)c1[nH]c3ccccc3c1c[n+]2C [2d] | 220 | 640 | 17.7 | ~ 10% | 90% | 
CCN(CC)CCCNc1ccc2[nH]c3c(c[n+](C)c4ccc(NCCCN(CC)CC)cc34)c2c1.[Cl-] [3d] |  | 6570 |  |  | 25% | 
CCN(CC)CCCNc1ccc2c(c1)[nH]c1c2c[n+](C)c2ccc(NCCCN(CC)CC)cc12.[Cl-] [3e] | 4800 | 3120 | 30.7 |  |  | 
C[n+]1ccc(-c2c3nc(c(-c4cc[n+](C)cc4)c4ccc([nH]4)c(-c4cc[n+](C)cc4)c4ccc([nH]4)c(-c4cc[n+](C)cc4)c4nc2C=C4)C=C3)cc1 [TMPyP4, reference compound] |  |  |  |  | no ability to repress KRAS transcription; also recorded: did not inhibit KRAS transcription | 2970
